In US9289405B2, “Compounds provided with antioxidant activity against free radicals, and pharmaceutical and cosmetic compositions containing them” (GIULIANI S.P.A, priority 2010, dated 2016):
Where a name gives a salt, the structure may show the parent alone.

Assays:
[1] = tested on: NCTC 2544 cells; test: Lipid lipoperoxidation induced by TBT, malondialdehyde content via thiobarbituric acid; format: cell-based, human; settings: 24 hours pre-treatment at maximum tolerated concentration, then TBT 2.5 μM for 24 hours, FIG. 2
Procedure: (§1) Two cellular systems were used: NCTC 2544, a line of human keratinocytes, and THP-1, a human promyelocytic line. The results were expressed as mean±standard deviation. Each experiment was repeated at least twice.
Lipid peroxidation was evaluated on the NCTC 2544 cells by measuring the content of malondialdehyde, one of the main by-products of lipid peroxidation, through its reactivity with thiobarbituric acid. The results are expressed as absorbance/mg protein. The protein content was evaluated by the Bradford method.
The NCTC cells were treated for 24 hours in the presence or in the absence of the maximum tolerated concentration of said compounds 1, 2, 3, and then stimulated with TBT 1-2.5 μM for a further 24 hours.
Trolox 100 μM was used as positive control.

[2] = tested on: THP-1 cells; test: Modulation of the production of ROS induced by LPS, cytofluorometry with DCFH; format: cell-based, human; settings: 1 hour treatment, serum-free medium, LPS 0.1 μg/ml, compared with Trolox 100 μM, FIG. 1
Procedure: as §1
Tributyltin (TBT) and lipopolysaccharide (LPS) are used as […] inducers of radical species. The production of ROS was evaluated by cytofluorometry techniques for the THP-1 cell line, using DCFH as stain.
The optimum times and concentrations for cytofluorometric measurement of ROS were identified in preliminary experiments.
The vitamin E derivative 6-hydroxy-2,5,7,8-tetramethylchroman-2-carboxylic acid (Trolox), at a concentration of 100 μM, was used as positive control.
The THP-1 cells were treated for 1 hour with compounds 1 and 2 of the invention at a concentration of 100 μg/ml, with compound 3 at a concentration of 200 μg/ml and with Trolox 100 μM in serum-free medium, loaded in the last 30 minutes with DCFH (10 μM) and then treated in the presence or absence of LPS (0.1 μg/ml) and analysed in the cytofluorometer.

Row | SMILES | lipoperoxidation induced by TBT (malondialdehyde content) [1] | production of ROS induced by LPS ([2]; compound at 100 μg/ml) | production of ROS induced by LPS ([2]; compound at 200 μg/ml)
1 | C/C=C/C=C/C=C/C(=O)O [compound 1, 2E,4E,6E-octatrienoic acid] | statistically significant (p<0.05) decrease of lipoperoxidation | nullifying the production of ROS induced by LPS 0.1 μg/ml to an extent not less than Trolox | –
2 | C/C=C/C=C/C=C/C(=O)[O-].[K+] [compound 2, potassium 2E,4E,6E-octatrienoate] | statistically significant (p<0.05) decrease of lipoperoxidation | nullifying the production of ROS induced by LPS 0.1 μg/ml to an extent not less than Trolox | –
3 | C/C=C/C=C/C=C/C(=O)O [compound 3, 2E,4E,6E-octatrienoic acid, L-lysine salt] | – | – | nullifying the production of ROS induced by LPS 0.1 μg/ml to an extent not less than Trolox
